Assay results published in PubChem BioAssay AID2060908 (Molecular Pharmacology Branch, DTP, NCI, 2025).

Tested on: 186277-243-T-J2-PDC complex spheroids, viability
Test: Anticancer human tumor 186277-243-T-J2-PDC patient-derived colon adenocarcinoma cell line growth inhibition [RAS]
Conditions: for IC50: curve of first compound; for viability, T/C: stronger effect = lower value
In short: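 Agents were tested in combination matrices in half-log decrements from a top concentration at or near clinical Cmax (10 microM if undetermined). Targets were multi-cell spheroids of tumour lines plus HUVEC and MSC stromal cells.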

[1] = second compound 0.000949 µM, first compound 0.00316 µM
[2] = second compound 0.000949 µM, first compound 0.01 µM
[3] = second compound 0.000949 µM, first compound 0.0316 µM
[4] = second compound 0.000949 µM, first compound 0.1 µM
[5] = second compound 0.003 µM, first compound 0.00316 µM
[6] = second compound 0.003 µM, first compound 0.01 µM
[7] = second compound 0.003 µM, first compound 0.0316 µM
[8] = second compound 0.003 µM, first compound 0.1 µM
[9] = second compound 0.00949 µM, first compound 0.00316 µM
[10] = second compound 0.00949 µM, first compound 0.01 µM
[11] = second compound 0.00949 µM, first compound 0.0316 µM
[12] = second compound 0.00949 µM, first compound 0.1 µM
[13] = second compound 0.03 µM, first compound 0.00316 µM
[14] = second compound 0.03 µM, first compound 0.01 µM
[15] = second compound 0.03 µM, first compound 0.0316 µM
[16] = second compound 0.03 µM, first compound 0.1 µM
[17] = second compound 0.0949 µM, first compound 0.00316 µM
[18] = second compound 0.0949 µM, first compound 0.01 µM
[19] = second compound 0.0949 µM, first compound 0.0316 µM
[20] = second compound 0.0949 µM, first compound 0.1 µM
[21] = second compound 0.3 µM, first compound 0.00316 µM
[22] = second compound 0.3 µM, first compound 0.01 µM
[23] = second compound 0.3 µM, first compound 0.0316 µM
[24] = second compound 0.3 µM, first compound 0.1 µM
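Further: spheroids exposed to compounds for 7 days before viability read.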

O=C(c1ccc(F)c(F)c1Nc1ccc(I)cc1F)N1CC(O)([C@@H]2CCCCN2)C1 + CCn1c(-c2cccnc2C(C)OC)c2c3cc(ccc31)N1CCOC(CC(NC(=O)C(C(C)C)N(C)C(=O)C3(F)CCN(C(=O)C#CC(C)(C)N(C)C)CC3)C(=O)N3CCCC(N3)C(=O)OCC(C)(C)C2)C1
IC50 (second compound 0.000949 µM): 96.5 nM
IC50 (second compound 0.003 µM): 91.5 nM
IC50 (second compound 0.00949 µM): 86.5 nM
IC50 (second compound 0.03 µM): 90.9 nM
IC50 (second compound 0.0949 µM): 74.2 nM
IC50 (second compound 0.3 µM): 54 nM
viability, T/C [1]: 98.9%
viability, T/C [2]: 102%
viability, T/C [3]: 99.6%
viability, T/C [4]: 48.2%
viability, T/C (second compound 0.000949 µM, first compound 0.316 µM): 9.52%
viability, T/C (second compound 0.000949 µM, first compound 1 µM): 4.41%
viability, T/C [5]: 82.9%
viability, T/C [6]: 94.6%
viability, T/C [7]: 87.5%
viability, T/C [8]: 46.5%
viability, T/C (second compound 0.003 µM, first compound 0.316 µM): 10.4%
viability, T/C (second compound 0.003 µM, first compound 1 µM): 3.64%
viability, T/C [9]: 91.7%
viability, T/C [10]: 105%
viability, T/C [11]: 89.4%
viability, T/C [12]: 44.2%
viability, T/C (second compound 0.00949 µM, first compound 0.316 µM): 9.08%
viability, T/C (second compound 0.00949 µM, first compound 1 µM): 4.42%
viability, T/C [13]: 100%
viability, T/C [14]: 93.9%
viability, T/C [15]: 98.9%
viability, T/C [16]: 45.7%
viability, T/C (second compound 0.03 µM, first compound 0.316 µM): 9.74%
viability, T/C (second compound 0.03 µM, first compound 1 µM): 4.04%
viability, T/C [17]: 121%
viability, T/C [18]: 114%
viability, T/C [19]: 86.9%
viability, T/C [20]: 37.3%
viability, T/C (second compound 0.0949 µM, first compound 0.316 µM): 9.15%
viability, T/C (second compound 0.0949 µM, first compound 1 µM): 3.51%
viability, T/C [21]: 119%
viability, T/C [22]: 101%
viability, T/C [23]: 72.7%
viability, T/C [24]: 25.3%
viability, T/C (second compound 0.3 µM, first compound 0.316 µM): 6.5%
viability, T/C (second compound 0.3 µM, first compound 1 µM): 2.7%

CC(=O)OC12COC1CC(O)C1(C)C(=O)C(O)C3=C(C)C(OC(=O)C(O)C(NC(=O)OC(C)(C)C)c4ccccc4)CC(O)(C(OC(=O)c4ccccc4)C21)C3(C)C (stereo unspecified) + C#Cc1c(F)ccc2cc(O)cc(-c3ncc4c(N5CC6CCC(C5)N6)nc(OCC56CCCN5CC(F)C6)nc4c3F)c12
IC50 (second compound 0.0316 µM): < 31.6 nM
IC50 (second compound 0.1 µM): < 31.6 nM
IC50 (second compound 0.316 µM): < 31.6 nM
IC50 (second compound 1 µM): < 31.6 nM
IC50 (second compound 3.16 µM): < 31.6 nM
IC50 (second compound 10 µM): < 31.6 nM
viability, T/C (second compound 0.0316 µM, first compound 0.0316 µM): 5.3%
viability, T/C (second compound 0.0316 µM, first compound 0.1 µM): 5.14%
viability, T/C (second compound 0.0316 µM, first compound 0.316 µM): 5.59%
viability, T/C (second compound 0.0316 µM, first compound 1 µM): 4.15%
viability, T/C (second compound 0.0316 µM, first compound 3.16 µM): 5.04%
viability, T/C (second compound 0.0316 µM, first compound 10 µM): 4.9%
viability, T/C (second compound 0.1 µM, first compound 0.0316 µM): 6.01%
viability, T/C (second compound 0.1 µM, first compound 0.1 µM): 5.73%
viability, T/C (second compound 0.1 µM, first compound 0.316 µM): 4.94%
viability, T/C (second compound 0.1 µM, first compound 1 µM): 4.03%
viability, T/C (second compound 0.1 µM, first compound 3.16 µM): 5.26%
viability, T/C (second compound 0.1 µM, first compound 10 µM): 3.53%
viability, T/C (second compound 0.316 µM, first compound 0.0316 µM): 5.77%
viability, T/C (second compound 0.316 µM, first compound 0.1 µM): 4.92%
viability, T/C (second compound 0.316 µM, first compound 0.316 µM): 4.48%
viability, T/C (second compound 0.316 µM, first compound 1 µM): 4.42%
viability, T/C (second compound 0.316 µM, first compound 3.16 µM): 4.75%
viability, T/C (second compound 0.316 µM, first compound 10 µM): 5%
viability, T/C (second compound 1 µM, first compound 0.0316 µM): 4.79%
viability, T/C (second compound 1 µM, first compound 0.1 µM): 5.04%
viability, T/C (second compound 1 µM, first compound 0.316 µM): 4.17%
viability, T/C (second compound 1 µM, first compound 1 µM): 4.69%
viability, T/C (second compound 1 µM, first compound 3.16 µM): 5.21%
viability, T/C (second compound 1 µM, first compound 10 µM): 4.15%
viability, T/C (second compound 3.16 µM, first compound 0.0316 µM): 3.84%
viability, T/C (second compound 3.16 µM, first compound 0.1 µM): 4.36%
viability, T/C (second compound 3.16 µM, first compound 0.316 µM): 4.81%
viability, T/C (second compound 3.16 µM, first compound 1 µM): 3.94%
viability, T/C (second compound 3.16 µM, first compound 3.16 µM): 4.59%
viability, T/C (second compound 3.16 µM, first compound 10 µM): 3.53%
viability, T/C (second compound 10 µM, first compound 0.0316 µM): 4.68%
viability, T/C (second compound 10 µM, first compound 0.1 µM): 3.75%
viability, T/C (second compound 10 µM, first compound 0.316 µM): 4.17%
viability, T/C (second compound 10 µM, first compound 1 µM): 4.45%
viability, T/C (second compound 10 µM, first compound 3.16 µM): 4.43%
viability, T/C (second compound 10 µM, first compound 10 µM): 3.61%

CC(C)n1nc(-c2ccc3oc(N)nc3c2)c2c(N)ncnc21 + CCn1c(-c2cccnc2C(C)OC)c2c3cc(ccc31)N1CCOC(CC(NC(=O)C(C(C)C)N(C)C(=O)C3(F)CCN(C(=O)C#CC(C)(C)N(C)C)CC3)C(=O)N3CCCC(N3)C(=O)OCC(C)(C)C2)C1
IC50 (second compound 0.000949 µM): 60.3 nM
IC50 (second compound 0.003 µM): 76 nM
IC50 (second compound 0.00949 µM): 59 nM
IC50 (second compound 0.03 µM): 56.9 nM
IC50 (second compound 0.0949 µM): 41.2 nM
IC50 (second compound 0.3 µM): 24.9 nM
viability, T/C (second compound 0.000949 µM, first compound 0.000316 µM): 115%
viability, T/C (second compound 0.000949 µM, first compound 0.001 µM): 98.1%
viability, T/C [1]: 98.5%
viability, T/C [2]: 100%
viability, T/C [3]: 70.6%
viability, T/C [4]: 33.7%
viability, T/C (second compound 0.003 µM, first compound 0.000316 µM): 88%
viability, T/C (second compound 0.003 µM, first compound 0.001 µM): 99%
viability, T/C [5]: 97.1%
viability, T/C [6]: 92.2%
viability, T/C [7]: 79.6%
viability, T/C [8]: 40.5%
viability, T/C (second compound 0.00949 µM, first compound 0.000316 µM): 90.1%
viability, T/C (second compound 0.00949 µM, first compound 0.001 µM): 115%
viability, T/C [9]: 93%
viability, T/C [10]: 94.1%
viability, T/C [11]: 69.3%
viability, T/C [12]: 33.6%
viability, T/C (second compound 0.03 µM, first compound 0.000316 µM): 106%
viability, T/C (second compound 0.03 µM, first compound 0.001 µM): 107%
viability, T/C [13]: 92.7%
viability, T/C [14]: 90.2%
viability, T/C [15]: 70.3%
viability, T/C [16]: 31.2%
viability, T/C (second compound 0.0949 µM, first compound 0.000316 µM): 103%
viability, T/C (second compound 0.0949 µM, first compound 0.001 µM): 98.4%
viability, T/C [17]: 105%
viability, T/C [18]: 95.4%
viability, T/C [19]: 55.8%
viability, T/C [20]: 31%
viability, T/C (second compound 0.3 µM, first compound 0.000316 µM): 101%
viability, T/C (second compound 0.3 µM, first compound 0.001 µM): 100%
viability, T/C [21]: 91.7%
viability, T/C [22]: 72.5%
viability, T/C [23]: 44.3%
viability, T/C [24]: 21.3%
